Results as given in PMC12445744, “Molecular docking to homology models of human and Trypanosoma brucei ERK8 that identified ortholog-specific inhibitors” (PLOS Neglected Tropical Diseases, 2025).
Several values for one entry are separate records, joined by “and”; a condition that tells them apart may be missing. Equal values may be shown once.

Biological target: T1, HsERK8 (Homo sapiens, UniProt Q8TD08)
T1 construct: plasmid pGEX2T expressing the full-length hERK8 coding region; made in house; host or cells: Escherichia coli Rosetta 2 (DE3)
T1 sequence (Q8TD08 1-544): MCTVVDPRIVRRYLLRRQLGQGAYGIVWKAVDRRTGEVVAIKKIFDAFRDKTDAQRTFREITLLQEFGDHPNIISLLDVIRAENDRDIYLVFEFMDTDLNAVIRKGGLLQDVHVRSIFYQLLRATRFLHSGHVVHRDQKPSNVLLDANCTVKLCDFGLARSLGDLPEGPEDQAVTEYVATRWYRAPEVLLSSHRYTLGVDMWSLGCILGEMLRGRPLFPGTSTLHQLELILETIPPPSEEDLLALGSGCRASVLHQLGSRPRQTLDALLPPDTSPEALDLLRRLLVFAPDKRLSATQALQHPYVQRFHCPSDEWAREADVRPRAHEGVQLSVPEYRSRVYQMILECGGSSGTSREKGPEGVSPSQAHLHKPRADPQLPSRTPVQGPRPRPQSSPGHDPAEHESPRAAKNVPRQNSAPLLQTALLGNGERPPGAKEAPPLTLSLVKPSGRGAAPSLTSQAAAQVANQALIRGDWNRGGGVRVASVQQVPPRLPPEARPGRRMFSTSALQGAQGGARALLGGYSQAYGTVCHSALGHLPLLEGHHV
Assay: Luciferase-based kinase inhibition assay (ATP luminescence), GST-tagged HsERK8 with MBP substrate
Assay type: biochemical
Settings: for raw luminescence, HsERK8: sheet Kinase_glo_080924_IFPS (2), replicate wells, listed as Ida
Procedure: Escherichia coli strain Rosetta 2 (DE3) (Cat# 71397, MilliporeSigma, Burlington, MA) was transformed with the plasmid pGEX2T expressing the full-length hERK8 coding region or pGSTAg expressing the full-length TbERK8 coding region. One liter of Terrific Broth media containing 100 μg/ml Ampicillin and 30 μg/ml chloramphenicol in 2 L baffled flasks was inoculated with 25 mL from an overnight culture of Rosetta 2 strains harboring either the pGEX2T-hERK8 or pGSTAg-TbERK8 plasmid. Two baffled flasks were inoculated with each overnight strain and incubated and shaken at 175 RPM in a New Brunswick Innova 44R Incubator Shaker (Fischer Scientific, Pittsburgh, PA) at 37 °C until the cultures reached an O.D.600 of 0.94. Once the cultures in the flask reached the target O.D.600, the flasks were cooled to 4 °C in an ice water bath. The cooled cultures were induced by adding isopropyl β-D-1-thiogalactopyranoside (IPTG) to a final concentration of 0.1 mM and shaken at 16 °C for 16 hours at 175 RPM in a New Brunswick Innova 44R Incubator Shaker (Fischer Scientific, Pittsburgh, PA). On the next day, the cultures were pelleted by centrifugation at 9000 xg in a JLA 10.500 rotor (Beckman Coulter; Brea, CA), and the media was decanted. The pellet was flash-frozen in liquid nitrogen and then thawed on ice. The thawed pellet was resuspended in lysis buffer (25 mM Tris, 75 mM NaCl, 0.5% TritonX-100 and 0.5% Nonidet P-40, 1 mM phenylmethanesulfonyl fluoride, 1 mM benzamidine⋅HCl) and lysed using a microfluidizer M-110P from Microfluidics (Westwood, MA). The crude lysates were clarified by centrifugation at 140,000 xg in a 45Ti rotor (Beckman Coulter, Brea, CA) for 30 min at 4°C. The clarified lysate was loaded by gravity to a 3 mL glutathione agarose resin column (Cat# G-250–10, GOLDBIO, St. Louis, MO) formed in a 1.5 × 20 cm glass chromatography column (Cat# 7371522, Bio-Rad, Hercules, CA). The column was washed with 30 mL of PBS (pH 7.4) containing 1 mM DTT. Elution buffer (50 mM Tris buffer pH 8.0 containing 10 mM reduced glutathione and 1 mM DTT was added to the washed column), and 1 mL fractions were collected by gravity and examined by SDS-PAGE stained by Coomassie dye. Peak fractions pooled from the elution were dialyzed (4x 1:500 dilutions) in kinase buffer (30 mM Tris, pH 7.4, 10 mM MgCl2, 1 mM DTT, 5% glycerol).
We performed kinase assays in buffer K (30 mM Tris pH 7.4, 10 mM MgCl2, 1 mM DTT, 5% glycerol, 50 μM ATP, and 0.1 mg/mL BSA) at 30°C for 30 min in 30 μL reactions. GST-tagged HsERK8 and TbERK8 were tested using myelin basic protein (MBP) (Cat# 13–110, Millipore, Darmstadt, Germany) as the substrate at increasing concentrations to determine the optimal activity for the assay. ATP consumption was determined by adding equal volumes of the kinase assay reagent (Promega, Cat# V5601, Madison, WI) following the manufacturer’s protocol. Luminescence was measured using the microplate reader (SpectraMax L, Molecular Devices, Sunnyvale, CA).
These compounds were screened for kinase inhibition utilizing a luciferase-based assay. Briefly, the kinases were tested using MBP as the substrate at a 14-fold molar excess in 384-well flat-bottom white plates (BRANDTECH Scientific, Cat# 781681, Essex, CT). These compounds were tested at concentrations ranging from […] to 150 nM. The kinases plus MBP substrate reactions were incubated with each inhibitor for 30 minutes at 30°C. Equal volumes of kinase assay mix Promega (Cat# V5601, Madison, WI) were added to the kinase/inhibitor reaction after 30 minutes, following the manufacturer’s protocol. ATP luminescence was measured using a microplate reader (SpectraMax L, Molecular Devices, Sunnyvale, CA). IC50 values were calculated from assays done in triplicate by fitting the data using Prism 8.1.1 (GraphPad).

CC(=O)[C@]1(O)Cc2c(O)c3c(c(O)c2[C@@H](O[C@H]2C[C@H](N)[C@H](O)[C@H](C)O2)C1)C(=O)c1ccccc1C3=O [Idarubicin]
raw luminescence, HsERK8 (0.00015 mM compound): 5033.01 RLU and 5464.22 RLU and 4680.41 RLU
raw luminescence, HsERK8 (0.00061 mM compound): 4929.7 RLU and 5104.88 RLU and 5152.04 RLU
raw luminescence, HsERK8 (0.00244 mM compound): 4819.65 RLU and 4756.77 RLU and 4179.58 RLU
raw luminescence, HsERK8 (0.00977 mM compound): 4606.3 RLU and 4691.64 RLU and 4170.6 RLU
raw luminescence, HsERK8 (0.03906 mM compound): 4799.44 RLU and 4835.38 RLU and 4925.21 RLU
raw luminescence, HsERK8 (0.15625 mM compound): 4702.87 RLU and 5131.83 RLU and 4550.15 RLU
raw luminescence, HsERK8 (0.62500 mM compound): 4750.03 RLU and 4873.56 RLU and 4527.69 RLU
raw luminescence, HsERK8 (2.50000 mM compound): 3723.67 RLU and 3768.58 RLU and 3368.82 RLU
raw luminescence, HsERK8 (10.00000 mM compound, signal = ATP left): 988.186 RLU and 1334.05 RLU and 1307.1 RLU
inhibitory effect on kinase activity of HsERK8 (concentrations below 4.0 x10^-5 M (above this the red compound blocked luminescence)): no detectible (n/d) inhibitory effect
